Calls of active or inactive are those of the source. The calls are words filed in the database; no cut-off is given here.
Assays:
HCT-116 [1] = assay: Induction of apoptosis in human HCT-116 cells assessed as viable cells at 0.6 uM incubated for 48 hrs by Annexin V-FITC/PI staining based flow cytometry (reference value: 96.2 %); assay type: functional; conditions: read-out: Activity
HCT-116 [2] = assay: Induction of intracellular ROS generation in human HCT-116 cells incubated for 48 hrs by DHE staining based analysis; assay type: functional, cell-based; conditions: dose 0.3-1.2 µM
HCT-116 [3] = assay: Induction of mitochondrial dysfunction in human HCT-116 cells at 0.3 to 1.2 uM by JC-1 dye based analysis; assay type: functional, cell-based; conditions: dose 0.3-1.2 µM
HCT-116 [4] = assay: Anti-proliferative activity against human HCT-116 cells harboring siNC assessed as decrease in p-JNK level at 1.2 uM by Western blot analysis; assay type: functional, cell-based
HCT-116 [5] = assay: Induction of cell cycle arrest in human HCT-116 cells assessed as accumulation at G1 phase at 1.2 uM incubated for 48 hrs by PI staining based flow cytometry (reference value: 59.37 %); assay type: functional
HCT-116 [6] = assay: Induction of intracellular ROS generation in human HCT-116 cells at 1.2 uM in presence of NAC by flow cytometry; assay type: functional, cell-based
HCT-116 [7] = assay: Induction of cell cycle arrest in human HCT-116 cells assessed as accumulation at G2 phase at 0.6 uM incubated for 48 hrs by PI staining based flow cytometry (reference value: 6.08 %); assay type: functional
HCT-116 [8] = assay: Induction of apoptosis in human HCT-116 cells assessed as early apoptotic cells at 1.2 uM incubated for 48 hrs by Annexin V-FITC/PI staining based flow cytometry (reference value: 1.12 %); assay type: functional
HCT-116 [9] = assay: Inhibition of colony formation in human HCT-116 cells harboring siNC at 1.2 uM incubated for 48 hrs followed by fresh media replacement without compound on every 72 hrs for 14 days by crystal violet staining based analysis; assay type: functional, cell-based
[10] = Acute toxicity in BALB/c mouse assessed as death rate at 180 mg/kg, ip measured for 14 days; assay type: organism-based; conditions: both, in vivo, time 14 day, read-out: Activity
[11] = Toxicity in BALB/c mouse implanted with mouse CT26 cells assessed as injury in heart at 15 to 45 mg/kg, ip qd treated for 14 days by H and E staining based analysis; assay type: organism-based; conditions: in vivo, 336 h, dose 15-45 mg/kg, time 14 day
HCT-116 [12] = assay: Anti-proliferative activity against human HCT-116 cells harboring siPPIA-3 assessed as decrease in p-JNK level at 1.2 uM by Western blot analysis; assay type: functional, cell-based
Homo sapiens = organism: Homo sapiens; assay: Disruption of PPIA/CD147 (unknown origin) interaction by Co-IP assay
HCT-116 [13] = assay: Induction of ER stress in human HCT-116 cells assessed as increase in CHOP level at 0.3 to 1.2 uM by Western blot analysis; assay type: functional, cell-based; conditions: dose 0.3-1.2 µM
HCT-116 [14] = assay: Effect on HSPA1A expression in human HCT-116 cells upto 6 uM incubated for 30 mins followed by pronase addition measured after 30 mins by DARTS assay; assay type: functional, cell-based
[15] = Toxicity in BALB/c mouse implanted with mouse CT26 cells assessed as injury in spleen at 15 to 45 mg/kg, ip qd treated for 14 days by H and E staining based analysis; assay type: organism-based; conditions: in vivo, 336 h, dose 15-45 mg/kg, time 14 day
HCT-116 [16] = assay: Induction of apoptosis in human HCT-116 cells assessed as late apoptotic cells at 0.6 uM incubated for 48 hrs by Annexin V-FITC/PI staining based flow cytometry (reference value: 1.55 %); assay type: functional
HCT-116 [17] = assay: Inhibition of cell viability in human HCT-116 cells at 0.3 to 1.2 uM incubated for 48 hrs in presence of NAC; assay type: functional, cell-based; conditions: dose 0.3-1.2 µM
HCT-116 [18] = assay: Induction of apoptosis in human HCT-116 cells assessed as late apoptotic cells at 0.3 uM incubated for 48 hrs by Annexin V-FITC/PI staining based flow cytometry (reference value: 1.55 %); assay type: functional
HCT-116 [19] = assay: Effect on TK1 expression in human HCT-116 cells upto 6 uM incubated for 30 mins followed by pronase addition measured after 30 mins by DARTS assay; assay type: functional, cell-based
HCT-116 [20] = assay: Cytotoxicity against human HCT-116 cells harboring siNC assessed as inhibition of cell viability incubated for 48 hrs by CCK8 assay; assay type: functional, cell-based; conditions: HCT-116, 48 h
HCT-116 [21] = assay: Effect on VCP expression in human HCT-116 cells upto 6 uM incubated for 30 mins followed by pronase addition measured after 30 mins by DARTS assay; assay type: functional, cell-based
[22] = molecular target: Peptidyl-prolyl cis-trans isomerase A (Homo sapiens, UniProt P62937); assay: Binding affinity to PPIA in human HCT-116 cells assessed as increase in thermal stability at 16 uM incubated for 30 mins followed by heat exposure at 40 to 60 degreeC for 3 mins by CETSA; assay type: cell-based; conditions: time 33.0 min
Sequence of Peptidyl-prolyl cis-trans isomerase A (P62937 whole entry, looked up): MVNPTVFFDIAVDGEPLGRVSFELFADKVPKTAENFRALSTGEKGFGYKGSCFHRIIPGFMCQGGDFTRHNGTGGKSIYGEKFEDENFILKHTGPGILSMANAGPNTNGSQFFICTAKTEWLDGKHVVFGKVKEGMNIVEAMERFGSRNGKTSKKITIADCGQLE

[23] = Toxicity in BALB/c mouse implanted with mouse CT26 cells assessed as injury in kidney at 15 to 45 mg/kg, ip qd treated for 14 days by H and E staining based analysis; assay type: organism-based; conditions: in vivo, 336 h, dose 15-45 mg/kg, time 14 day
[24] = Acute toxicity in BALB/c mouse assessed as death rate at 250 mg/kg, ip measured for 14 days; assay type: organism-based; conditions: both, in vivo, time 14 day, read-out: Activity
HCT-116 [25] = assay: Induction of intracellular ROS generation in human HCT-116 cells harboring siNC at 1.2 uM by flow cytometry (reference value: 8.22 %); assay type: functional
[26] = Acute toxicity in BALB/c mouse assessed as lethal dose administered intraperitoneally measured for 14 days; conditions: in vivo, route ip, time 14 day
HCT-116 [27] = assay: Induction of apoptosis in human HCT-116 cells assessed as decrease in p-JNK level by Western blot analysis; assay type: functional, cell-based; conditions: dose 0.3-1.2 µM
HCT-116 [28] = assay: Induction of apoptosis in human HCT-116 cells assessed as increase in p53 level at 1.2 uM in presence of NAC by Western blot analysis; assay type: functional, cell-based
HCT-116 [29] = assay: Induction of apoptosis in human HCT-116 cells at 1.2 uM in presence of NAC by Annexin V-FITC/PI staining based flow cytometry; assay type: functional, cell-based
HCT-116 [30] = assay: Induction of apoptosis in human HCT-116 cells assessed as late apoptotic cells at 1.2 uM incubated for 48 hrs by Annexin V-FITC/PI staining based flow cytometry (reference value: 1.55 %); assay type: functional
HCT-116 [31] = assay: Anti-migration activity in human HCT-116 cells incubated for 24 hrs by wound healing assay; assay type: functional, cell-based; conditions: dose 0.3-1.2 µM
[32] = Stability in mouse plasma assessed as half life measured upto 24 hrs by HPLC analysis; assay type: ADME, cell-free
HCT-116 [33] = assay: Induction of apoptosis in human HCT-116 cells harboring siNC assessed as late apoptotic cells at 1.2 uM by Annexin V-FITC/PI staining based flow cytometry (reference value: 1.35 %); assay type: functional
CT26 = assay: Antitumor activity against mouse CT26 cells implanted in BALB/c mouse assessed as reduction in tumor weight administered intraperitoneally once daily for 14 days; assay type: functional; conditions: dose 15-45 mg/kg, route ip, time 14.0 day
HCT-116 [34] = assay: Induction of ER stress in human HCT-116 cells assessed as increase in PERK level at 0.3 to 1.2 uM by Western blot analysis; assay type: functional, cell-based; conditions: dose 0.3-1.2 µM
HCT-116 [35] = assay: Anti-migration activity in human HCT-116 cells harboring siPPIA-3 at 1.2 uM incubated for 24 hrs by wound healing assay; assay type: functional, cell-based

## C=C(C(=O)OC)N1c2nc(Cl)nc(Cl)c2N2C(c3ccccc3F)OC(C(=O)OCC)(C(=O)OCC)C12 (racemic)
HCT-116 [1]
  viability at 0.6 µM: 77.5%
HCT-116 [2]
  Activity: Dose-dependent-effect
HCT-116 [3]
  Activity: Active
HCT-116 [4]
  Activity: Active
HCT-116 [5]
  Activity: 69.07%
HCT-116 [6]
  Activity: inactive
HCT-116 [7]
  Activity: 4.71%
HCT-116 [8]
  Activity: 21.3%
HCT-116 [9]
  inhibition: Active
[10]
  mortality at 336 h: 0%
[11]
  Activity: Non-toxic
HCT-116 [12]
  Activity: inactive
Homo sapiens
  Activity: Active
HCT-116 [13]
  Activity: Active
HCT-116 [14]
  Activity: No effect
[15]
  Activity: Non-toxic
HCT-116 [16]
  Activity: 5.53%
HCT-116 [17]
  inhibition: inactive
HCT-116 [18]
  Activity: 3.56%
HCT-116 [19]
  Activity: No effect
HCT-116 [20]
  IC50: 470 nM
HCT-116 [21]
  Activity: No effect
[22]
  Activity: Active; Activity Similar To Csa
[23]
  Activity: Non-toxic
[24]
  mortality at 336 h: 10%
HCT-116 [25]
  Activity: 22.9%
[26]
  LD50 at 336 h: 453 mg/kg
HCT-116 [27]
  Activity: Dose-dependent-effect
HCT-116 [28]
  Activity: inactive
HCT-116 [29]
  Activity: inactive
HCT-116 [30]
  Activity: 8.35%
HCT-116 [31]
  Activity: Dose-dependent-effect
[32]
  half-life: 4.78 h
HCT-116 [33]
  Activity: 4.87%
CT26
  Activity: Dose-dependent-effect
HCT-116 [34]
  Activity: Active
HCT-116 [35]
  Activity: inactive
